Drawing on BindingDB's records for doi:10.1016/j.bmcl.2010.07.082 (Ligand Pharmaceuticals, 2010), this text covers IC50 for five compounds.

The test in a line: Antagonist activity at CCR1 in human THP1 cells assessed as inhibition of CCL3-induced chemotaxis after 3 hrs.

A word on the IC50: it is the point on the concentration scale where inhibition reaches its midpoint. `O=C(Nc1ccc(C(F)(F)F)cc1)N1CCCC1c1nccn1Cc1ccc(Cl)cc1` (stereo not given) [2-(1-(4-chlorobenzyl)-1H-imidazol-2-yl)-N-(4-(trifluoromethyl)phenyl)pyrrolidine-1-carboxamide]: the IC50 came out at 16 nM.
The same measure for `O=C(Nc1ccc(C(F)(F)F)cc1)N1CCC[C@@H]1c1nnnn1Cc1ccc(Cl)cc1` [(R)-2-(1-(4-chlorobenzyl)-1H-tetrazol-5-yl)-N-(4-(trifluoromethyl)phenyl)pyrrolidine-1-carboxamide]: 6.5 nM.
Consider `O=C(Nc1ccc(C(F)(F)F)cc1)N1CCC[C@@H]1c1ncnn1Cc1ccc(Cl)cc1` [(R)-2-(1-(4-chlorobenzyl)-1H-1,2,4-triazol-5-yl)-N-(4-(trifluoromethyl)phenyl)pyrrolidine-1-carboxamide], for which the IC50 turned out to be 22 nM.
Regarding `Cc1nnc([C@H]2CCCN2C(=O)Nc2ccc(C(F)(F)F)cc2)n1Cc1ccc(Cl)cc1` [(R)-2-(4-(4-chlorobenzyl)-5-methyl-4H-1,2,4-triazol-3-yl)-N-(4-(trifluoromethyl)phenyl)pyrrolidine-1-carboxamide], the IC50 turned out to be 2.9 nM.
The same measure for `O=C(Nc1ccc(C(F)(F)F)cc1)N1CCC[C@@H]1c1nncn1Cc1ccc(Cl)cc1` [(R)-2-(4-(4-chlorobenzyl)-4H-1,2,4-triazol-3-yl)-N-(4-(trifluoromethyl)phenyl)pyrrolidine-1-carboxamide]: 4 nM.
